The source made the active and inactive calls. The calls are words filed in the database; no cut-off is given here.
Assays:
[1] = biological target: MAP kinase-interacting serine/threonine-protein kinase 2 (Homo sapiens, UniProt Q9HBH9); test: Inhibition of MKN2 (unknown origin) in presence of ATP by HTRF assay
[2] = biological target: T1, MAP kinase-interacting serine/threonine-protein kinase 1 (Homo sapiens, UniProt Q9BUB5); test: Inhibition of MKN1 (unknown origin) in presence of ATP by HTRF assay
Target sequence in this assay (Q9BUB5 whole entry): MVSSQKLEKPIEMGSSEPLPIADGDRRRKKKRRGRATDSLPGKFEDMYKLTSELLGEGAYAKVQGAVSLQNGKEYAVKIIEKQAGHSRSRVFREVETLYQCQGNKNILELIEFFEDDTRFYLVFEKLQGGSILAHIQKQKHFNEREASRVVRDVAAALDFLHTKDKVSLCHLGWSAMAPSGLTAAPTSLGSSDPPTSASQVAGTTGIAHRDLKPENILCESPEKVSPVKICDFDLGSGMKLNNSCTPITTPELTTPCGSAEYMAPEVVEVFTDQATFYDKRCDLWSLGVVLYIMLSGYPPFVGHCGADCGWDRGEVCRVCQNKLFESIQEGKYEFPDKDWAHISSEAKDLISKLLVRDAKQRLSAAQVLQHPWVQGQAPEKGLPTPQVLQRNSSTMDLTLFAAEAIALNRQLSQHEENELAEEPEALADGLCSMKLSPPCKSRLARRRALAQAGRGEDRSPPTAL

MOLM-13 [3] = test: Antiproliferative activity against human MOLM13 cells assessed as reduction of cell viability incubated for 72 hrs by trypan blue staining based cell counting analysis; format: functional
[4] = biological target: T1, MAP kinase-interacting serine/threonine-protein kinase 1; test: Inhibition of MKN1 (unknown origin) at 1 uM in presence of ATP by HTRF assay
Target sequence in this assay (Q9BUB5 whole entry, looked up): as the sequence (Q9BUB5 whole entry) above

[5] = Intrinsic clearance in human liver microsomes preincubated for 10 mins followed by NADPH addition and further incubated upto 60 mins by LC-MS/MS analysis; format: ADME, Microsome; settings: time <=70 min, read-out: CLH
[6] = Intrinsic clearance in rat liver microsomes preincubated for 10 mins followed by NADPH addition and further incubated upto 60 mins by LC-MS/MS analysis; format: ADME, Microsome; settings: time <=70 min, read-out: CLH
[7] = Metabolic stability in rat liver microsomes assessed as half life preincubated for 10 mins followed by NADPH addition and further incubated upto 60 mins by LC-MS/MS analysis; format: ADME, Microsome; settings: time <=70 min
[8] = biological target: MAP kinase-interacting serine/threonine-protein kinase 1/2 (Homo sapiens) (UniProt Q9HBH9+Q9BUB5); test: Inhibition of MNK1/MNK2 in human MOLM-13 cells assessed as reduction in eIF4E phosphorylation at 1 to 2 uM incubated for 12 hrs by western blot analysis; format: cell-based; settings: dose 1-2 µM
K562 [9] = test: Downregulation of mcl-1 levels in human K562 cells at 1 to 2 uM incubated for 24 hrs by western blot analysis; format: functional, cell-based; settings: dose 1-2 µM
MOLM-13 [10] = test: Induction of cell cycle arrest in human MOLM-13 cells assessed as G1 phase at 2 uM incubated for 12 hr by propidium iodide based flow cytometry analysis (Rvb= 51.29%); format: functional
MOLM-13 [11] = test: Induction of apoptosis in human MOLM-13 cells assessed as live cells at 1 uM incubated for 12 hrs by annexin-V and propidium iodide staining based flow cytometry analysis (reference value: 91.49%); format: functional
HL-60 = test: Antiproliferative activity against human HL-60 cells assessed as reduction of cell viability incubated for 72 hrs by trypan blue staining based cell counting analysis; format: functional
MOLM-13 [12] = test: Induction of cell cycle arrest in human MOLM-13 cells assessed as sub-G1 phase at 2 uM incubated for 12 hr by propidium iodide based flow cytometry analysis (Rvb= 4.78%); format: functional
MOLM-13 [13] = test: Induction of apoptosis in human MOLM-13 cells assessed as necrotic cells at 1 uM incubated for 12 hrs by annexin-V and propidium iodide staining based flow cytometry analysis (reference value: 0.06%); format: functional
MOLM-13 [14] = test: Downregulation of cyclin-D1 levels in human MOLM-13 cells at 1 to 2 uM incubated for 12 hrs by western blot analysis; format: functional, cell-based; settings: dose 1-2 µM
MOLM-13 [15] = test: Induction of apoptosis in human MOLM-13 cells assessed as late apoptotic cells at 2 uM incubated for 12 hrs by annexin-V and propidium iodide staining based flow cytometry analysis (reference value: 3.03%); format: functional
MOLM-13 [16] = test: Induction of apoptosis in human MOLM-13 cells assessed as necrotic cells at 2 uM incubated for 12 hrs by annexin-V and propidium iodide staining based flow cytometry analysis (reference value: 0.06%); format: functional
MOLM-13 [17] = test: Induction of apoptosis in human MOLM-13 cells assessed as early apoptotic cells at 1 uM incubated for 12 hrs by annexin-V and propidium iodide staining based flow cytometry analysis (reference value: 5.40%); format: functional
[18] = biological target: T2, Serine/threonine-protein kinase PIM (Homo sapiens) (UniProt P11309+Q9P1W9+Q86V86); test: Inhibition of PIM in human MOLM-13 cells assessed as reduction in phosphorylated 4EBP1 at 1 to 2 uM incubated for 12 hrs by western blot analysis; format: cell-based; settings: dose 1-2 µM
T2 sequence (P11309 whole entry, looked up): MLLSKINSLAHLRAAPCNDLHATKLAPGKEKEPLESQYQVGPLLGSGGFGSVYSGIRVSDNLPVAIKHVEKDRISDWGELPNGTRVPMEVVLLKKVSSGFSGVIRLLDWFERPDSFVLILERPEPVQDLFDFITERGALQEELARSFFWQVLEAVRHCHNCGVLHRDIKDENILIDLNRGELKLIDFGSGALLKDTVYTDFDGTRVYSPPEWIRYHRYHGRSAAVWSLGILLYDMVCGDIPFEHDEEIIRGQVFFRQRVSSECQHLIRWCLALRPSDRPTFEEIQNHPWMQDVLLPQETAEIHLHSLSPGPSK
T2 sequence (Q9P1W9 whole entry, looked up): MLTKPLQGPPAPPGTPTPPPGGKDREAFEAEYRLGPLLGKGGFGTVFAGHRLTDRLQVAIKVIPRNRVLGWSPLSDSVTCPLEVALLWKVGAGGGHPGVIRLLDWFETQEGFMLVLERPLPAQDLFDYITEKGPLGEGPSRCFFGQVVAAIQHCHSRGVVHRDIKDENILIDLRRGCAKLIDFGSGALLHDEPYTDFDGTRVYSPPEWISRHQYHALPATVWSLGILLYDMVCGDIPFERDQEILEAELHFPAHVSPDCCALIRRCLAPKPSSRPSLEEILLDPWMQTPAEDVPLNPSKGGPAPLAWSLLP

MOLM-13 [19] = test: Induction of apoptosis in human MOLM-13 cells assessed as live cells at 2 uM incubated for 12 hrs by annexin-V and propidium iodide staining based flow cytometry analysis (reference value: 91.49%); format: functional
MOLM-13 [20] = test: Induction of cell cycle arrest in human MOLM-13 cells assessed as G1 phase at 1 uM incubated for 12 hr by propidium iodide based flow cytometry analysis (Rvb= 51.29%); format: functional
MOLM-13 [21] = test: Induction of apoptosis in human MOLM-13 cells assessed as early apoptotic cells at 2 uM incubated for 12 hrs by annexin-V and propidium iodide staining based flow cytometry analysis (reference value: 5.40%); format: functional
MOLM-13 [22] = test: Downregulation of c-myc levels in human MOLM-13 cells at 1 to 2 uM incubated for 12 hrs by western blot analysis; format: functional, cell-based; settings: dose 1-2 µM
K562 [23] = test: Antiproliferative activity against human K562 cells assessed as reduction of cell viability incubated for 72 hrs by trypan blue staining based cell counting analysis; format: functional
[24] = biological target: T2, Serine/threonine-protein kinase PIM (Homo sapiens); test: Inhibition of PIM in human MOLM-13 cells assessed as reduction of BAD phosphorylation at 1 to 2 uM incubated for 12 hrs by western blot analysis; format: cell-based; settings: dose 1-2 µM
MOLM-13 [25] = test: Induction of apoptosis in human MOLM-13 cells assessed as late apoptotic cells at 1 uM incubated for 12 hrs by annexin-V and propidium iodide staining based flow cytometry analysis (reference value: 3.03%); format: functional
MOLM-13 [26] = test: Downregulation of mcl-1 levels in human MOLM-13 cells at 1 to 2 uM incubated for 12 hrs by western blot analysis; format: functional, cell-based; settings: dose 1-2 µM
K562 [27] = test: Downregulation of cyclin-D1 levels in human K562 cells at 1 to 2 uM incubated for 24 hrs by western blot analysis; format: functional, cell-based; settings: dose 1-2 µM
K562 [28] = test: Downregulation of c-myc levels in human K562 cells at 1 to 2 uM incubated for 24 hrs by western blot analysis; format: functional, cell-based; settings: dose 1-2 µM
MOLM-13 [29] = test: Induction of cell cycle arrest in human MOLM-13 cells assessed as sub-G1 phase at 1 uM incubated for 12 hr by propidium iodide based flow cytometry analysis (Rvb= 4.78%); format: functional

MAP kinase-interacting serine/threonine-protein kinase 2, sequence (Q9HBH9 whole entry): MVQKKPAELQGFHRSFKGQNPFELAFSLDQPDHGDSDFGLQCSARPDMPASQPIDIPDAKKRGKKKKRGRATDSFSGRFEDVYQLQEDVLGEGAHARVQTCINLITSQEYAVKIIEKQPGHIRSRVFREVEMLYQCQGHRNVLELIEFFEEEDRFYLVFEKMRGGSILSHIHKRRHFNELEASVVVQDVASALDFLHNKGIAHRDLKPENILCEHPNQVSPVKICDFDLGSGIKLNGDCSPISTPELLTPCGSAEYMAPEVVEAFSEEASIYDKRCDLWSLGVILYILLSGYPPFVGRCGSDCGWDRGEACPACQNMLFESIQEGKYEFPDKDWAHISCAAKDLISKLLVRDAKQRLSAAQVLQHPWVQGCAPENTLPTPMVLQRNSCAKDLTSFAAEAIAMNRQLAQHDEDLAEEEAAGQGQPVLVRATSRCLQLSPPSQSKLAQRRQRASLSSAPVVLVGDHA

With `O=C(c1cccc(C#Cc2ccccc2Nc2ncnc3ccc(Cl)nc23)c1)N1CCOCC1` the IC50 [1] was > 10 µM and the IC50 [2] was > 10 µM.
With `CN(C)C(=O)c1cccc(C#Cc2ccccc2Nc2ncnc3ccc(Cl)nc23)c1` the IC50 [1] was > 10 µM and the IC50 [2] was > 10 µM.
For `CNC(=O)c1oc2ccc(Nc3ncnc4ccc(Cl)nc34)cc2c1C`, the IC50 [1] was 2.5 µM and the IC50 [2] was > 10 µM.
In the case of `O=C(c1ccc(-c2ccc3ncnc(Nc4ccc(O)cc4)c3n2)cc1)N1CCNCC1`, the GI50 (MOLM-13 [3]) is reported as 11.2 µM, the IC50 [1] is reported as 0.041 µM and the IC50 [2] is reported as 0.0085 µM. For the same compound, the inhibition [4] was 86%.
Compound `CNC(=O)c1ccc(-c2ccc3ncnc(Nc4ccccc4)c3n2)cc1` has a GI50 (MOLM-13 [3]) of 1.83 µM, an IC50 [1] of 0.058 µM and an inhibition [4] of 37%.
For `O=C(c1cccc(-c2ccc3ncnc(Nc4ccc(F)cc4)c3n2)c1)N1CCNCC1`, the GI50 (MOLM-13 [3]) was 6.05 µM, the IC50 [1] was 0.052 µM and the inhibition [4] was 70%.
With `O=C(c1cccc(C#Cc2ccccc2Nc2ncnc3ccc(Cl)nc23)c1)N1CCNCC1` the IC50 [1] was 5 µM and the IC50 [2] was > 10 µM.
With `CNC(=O)c1cccc(C#Cc2ccccc2Nc2ncnc3ccc(Cl)nc23)c1` the IC50 [1] was 4.9 µM and the IC50 [2] was > 10 µM.
For `COC(=O)c1oc2ccc(Nc3ncnc4ccc(Cl)nc34)cc2c1C`, the IC50 [1] was 4.8 µM and the IC50 [2] was > 10 µM.
For `Cc1ncc2n1-c1ccc(Cl)cc1C(c1ccccc1F)=NC2` [MIDAZOLAM], the CLint scaled [5] was 219 mL/min/kg, the CLint scaled [6] was 939 mL/min/kg and the half-life [7] was 2.64 min.
In the case of `Cc1c(C(=O)N(C)C)oc2ccc(Nc3ncnc4ccc(Cl)nc34)cc12`, the IC50 [1] is reported as 2.2 µM and the IC50 [2] is reported as > 10 µM.
With `N#Cc1ccc(Nc2ncnc3ccc(-c4ccc(C(=O)N5CCNCC5)cc4)nc23)cc1` the IC50 [1] was 0.043 µM, the IC50 [2] was 0.00015 µM and the inhibition [4] was 88%.
For `CN1CCC(CNc2ccc3ncc(-c4cccc(OC(F)(F)F)c4)n3n2)CC1` [SGI-1776], the inhibition [8] was “inactive”, the Activity (K562 [9]) was “inactive” and the Activity (MOLM-13 [10]) was 58.06%. It also gave an Activity (MOLM-13 [11]) of 71.17%, a GI50 (HL-60) of 1.28 µM and an Activity (MOLM-13 [12]) of 26.08%. The Activity (MOLM-13 [13]) was 0.22%, the GI50 (MOLM-13 [3]) was 0.13 µM and the Activity (MOLM-13 [14]) was “Active”. It also gave an Activity (MOLM-13 [15]) of 4.23%, an Activity (MOLM-13 [16]) of 0.13% and an Activity (MOLM-13 [17]) of 24.57%. The inhibition [18] was “Active”, the Activity (MOLM-13 [19]) was 64.56% and the Activity (MOLM-13 [20]) was 67.94%. The Activity (MOLM-13 [21]) was 31.08%, the Activity (MOLM-13 [22]) was “Active” and the GI50 (K562 [23]) was 2.19 µM. For the same compound, the inhibition [24] was “Active”, the Activity (MOLM-13 [25]) was 4.05% and the Activity (MOLM-13 [26]) was “Active”. The Activity (K562 [27]) was “inactive”, the Activity (K562 [28]) was “inactive” and the Activity (MOLM-13 [29]) was 15.68%.
For `COC(=O)c1cccc(C#Cc2ccccc2Nc2ncnc3ccc(Cl)nc23)c1`, the IC50 [1] was 4.2 µM and the IC50 [2] was > 10 µM.
Work on `c1ccc(Nc2ncnc3ccc(-c4ccccc4)nc23)cc1` yielded an IC50 [1] of 0.612 µM and an inhibition [4] of 0%.
In the case of `CCCNC(=O)c1cccc(C#Cc2ccccc2Nc2ncnc3ccc(Cl)nc23)c1`, the IC50 [1] is reported as 3.9 µM and the IC50 [2] is reported as > 10 µM.
`O=C(c1cccc(-c2ccc3ncnc(Nc4ccccc4)c3n2)c1)N1CCNCC1` showed a GI50 (MOLM-13 [3]) of 3.92 µM, an IC50 [1] of 0.624 µM and an inhibition [4] of 57%.
`COc1cc(Nc2ncnc3ccc(-c4ccc(C(=O)N5CCNCC5)cc4)nc23)ccc1F` gave a GI50 (MOLM-13 [3]) of 2.85 µM, an IC50 [1] of 0.025 µM and an IC50 [2] of 0.001 µM. The inhibition [4] was 90%.
In the case of `Cc1c(C(=O)N2CCNCC2)oc2ccc(Nc3ncnc4ccc(Cl)nc34)cc12`, the IC50 [1] is reported as 1.9 µM and the IC50 [2] is reported as > 10 µM.
With `COc1ccc(Nc2ncnc3ccc(-c4ccc(C(=O)N5CCNCC5)cc4)nc23)cc1` the GI50 (MOLM-13 [3]) was 10.1 µM, the IC50 [1] was 0.111 µM and the inhibition [4] was 7%.
Work on `O=C(c1ccc(-c2ccc3ncnc(Nc4ccccc4)c3n2)cc1)N1CCNCC1` yielded a GI50 (MOLM-13 [3]) of 3.19 µM, an IC50 [1] of 0.036 µM and an inhibition [4] of 71%.
Compound `COc1cc(F)ccc1Nc1ncnc2ccc(-c3ccc(C(=O)N4CCNCC4)cc3)nc12` has a GI50 (MOLM-13 [3]) of 1.88 µM, an IC50 [1] of 0.029 µM and an IC50 [2] of 0.0012 µM. The inhibition [4] was 89%.
With `O=C(c1ccc(-c2ccc3ncnc(Nc4ccc(C(F)(F)F)cc4)c3n2)cc1)N1CCNCC1` the GI50 (MOLM-13 [3]) was 2.67 µM, the IC50 [1] was 0.041 µM and the inhibition [4] was 0%.
`O=C(c1ccc(-c2ccc3ncnc(Nc4cccc(F)c4)c3n2)cc1)N1CCNCC1` showed a GI50 (MOLM-13 [3]) of 3.8 µM, an IC50 [1] of 0.033 µM and an inhibition [4] of 70%.
`O=C(c1ccc(-c2ccc3ncnc(Nc4ccc(F)cc4)c3n2)cc1)N1CCNCC1` gave a GI50 (MOLM-13 [3]) of 7.93 µM, an IC50 [1] of 0.026 µM and an IC50 [2] of 0.0011 µM. The inhibition [4] was 83%.
With `Cc1c(C(=O)N2CCOCC2)oc2ccc(Nc3ncnc4ccc(Cl)nc34)cc12` the IC50 [1] was 1.8 µM and the IC50 [2] was > 10 µM.
`Cc1ccc(Nc2ncnc3ccc(-c4ccc(C(=O)N5CCNCC5)cc4)nc23)cc1` gave a GI50 (MOLM-13 [3]) of 3.54 µM, an IC50 [1] of 0.062 µM and an inhibition [4] of 12%.
In the case of `O=C(c1ccc(-c2ccc3ncnc(Nc4ccccc4F)c3n2)cc1)N1CCNCC1`, the GI50 (MOLM-13 [3]) is reported as 3.08 µM, the IC50 [1] is reported as 0.01 µM and the inhibition [4] is reported as 34%.
For `CCCNC(=O)c1oc2ccc(Nc3ncnc4ccc(Cl)nc34)cc2c1C`, the IC50 [1] was 1.9 µM and the IC50 [2] was > 10 µM.

From ChEMBL document CHEMBL4825757, “Optimization of 4,6-Disubstituted Pyrido[3,2-d]pyrimidines as Dual MNK/PIM Inhibitors to Inhibit Leukemia Cell Growth” (J Med Chem, 2021)
